According to US12649723B2, “Carbonohydrazonoyl dicyanide compounds comprising 2 or more aryl or heteroaryl connected via linker and use thereof” (KOREA INSTITUTE OF SCIENCE AND TECHNOLOGY, priority 2020, dated 2026):

Assays:
Tau-BiFC cells = experiment: Cell viability (cytotoxicity) in tau-BiFC cells, count of stained nuclei; format: cell-based; settings: compound 10 μM; Forskolin-only group = 100% cell viability
Protocol: (§1) In order to select novel tau protein aggregation-inhibiting substances, tau-BiFC cell model, in which formation of tau oligomers in living cells is easily observed, was used. Tau-BiFC cells were aliquoted into a 384-well plate. On the next day, the cells were treated with each of the compounds prepared according to Examples 1 to 175 at concentrations of 1 μM, 3 μM, and 10 μM, together with Forskolin (at a treatment concentration of 30 μM), which is a compound inducing tau protein aggregation by activating tau […] PKA. After 48 hours, nuclei in the cells were stained using Hoechst (at a treatment concentration of 2 μg/mL), and BiFC fluorescence intensity was automatically measured using Operetta (PerkinElmer) to count stained nuclei in each well out of the entire well plate. The group treated only with Forskolin, which induces tau protein aggregation, was set to a reference point of a 100% tau protein-aggregated state, and the effects of the compounds were confirmed using the equation “BiFC fluorescence intensity due to compound synthesized according to embodiment of present invention/(fluorescence intensity of control group treated only with Forskolin inducing tau protein aggregation−fluorescence intensity of untreated control group)×100”. Furthermore, the degree of cytotoxicity induced by the newly synthesized compound was also measured based on the 100% cell viability of the group treated only with Forskolin as a reference, and the cytotoxicity value of each compound was calculated using the equation “(number of stained nuclei in group treated with compound/number of stained nuclei in group treated with Forskolin)×100”. Based on the treatment results, substances inhibiting intracellular tau protein aggregation were selected from a series of candidate groups showing a tau protein aggregation inhibition rate of 70% or more and cell viability of 100% at a compound treatment concentration of 10 μM or more.
(§2) In order to evaluate dose-dependent tau protein aggregation inhibition effects of the compounds selected according to Experimental Example 1 on tau protein aggregation, tau-BiFC cells were treated with the selected compounds at concentrations of 0.03 μM, […], 0.3 μM, 1 μM, 3 μM, 10 μM, and 30 μM, respectively, together with Forskolin (at a treatment concentration of 30 μM), which is a tau protein aggregation inducing substance. After 48 hours, tau protein aggregation reaction and degrees of cytotoxicity were analyzed by observing images of the cells. IC50 and toxicity of the compounds were analyzed by way of nonlinear regression analysis of prism software (Graph Pad).

tau protein = target: T1, tau protein (Homo sapiens, UniProt P10636); experiment: Tau-BiFC cell model: inhibition of tau protein aggregation; format: cell-based; settings: for remaining activity at 10 µM: 48 h, compound 10 μM, BiFC fluorescence, Forskolin-only group = 100% tau protein-aggregated state, read-out: Response (% @10 μM); for IC50: Tau BiFC in cells, with Forskolin 30 μM, 48 hours
T1 construct: fused on or other part: Split fluorescent-protein halves for BiFC are fused to tau; In the published tau-BiFC line these are Venus VN173 and VC155
T1 sequence (P10636 2-441 isoform P10636-8 limits assumed): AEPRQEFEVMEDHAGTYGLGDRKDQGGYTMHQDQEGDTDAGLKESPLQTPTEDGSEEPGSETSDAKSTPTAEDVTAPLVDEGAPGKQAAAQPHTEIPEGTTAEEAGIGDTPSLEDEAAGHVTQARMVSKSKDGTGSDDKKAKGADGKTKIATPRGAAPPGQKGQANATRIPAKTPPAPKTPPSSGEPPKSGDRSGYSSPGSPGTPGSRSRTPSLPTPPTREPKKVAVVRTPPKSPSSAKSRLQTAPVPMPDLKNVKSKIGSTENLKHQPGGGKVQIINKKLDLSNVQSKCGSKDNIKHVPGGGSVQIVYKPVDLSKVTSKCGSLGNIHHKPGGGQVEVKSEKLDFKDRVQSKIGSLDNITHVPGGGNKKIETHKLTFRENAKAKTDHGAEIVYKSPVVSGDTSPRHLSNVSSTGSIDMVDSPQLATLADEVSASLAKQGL
Protocol: as §1, §2

SMILES | Cell viability (% @10 μM) (Tau-BiFC cells) | remaining activity at 10 µM (tau protein) | IC50 (tau protein)
Cc1cnc(C(=O)Nc2ccc(NN=C(C#N)C#N)cc2)cn1 [Compound 2, (4-(5-methylpyrazine-2-carboxamido)phenyl)carbonohydrazonoyl dicyanide] | 71.5% | 0% | 1400 nM
Cc1cnc(C(=O)Nc2ccc(NN=C(C#N)C#N)c(Cl)c2)cn1 [Compound 5, (2-chloro-4-(5-methylpyrazine-2-carboxamido)phenyl)carbonohydrazonoyl dicyanide] | 61.2% | 14.5% | –
Cc1cnc(C(=O)Nc2ccc(NN=C(C#N)C#N)cc2F)cn1 [Compound 7, (3-fluoro-4-(5-methylpyrazine-2-carboxamido)phenyl)carbonohydrazonoyl dicyanide] | 30.6% | 0% | –
Cc1cnc(C(=O)Nc2ccc(NN=C(C#N)C#N)cc2C)cn1 [Compound 8, (3-methyl-4-(5-methylpyrazine-2-carboxamido)phenyl)carbonohydrazonoyl dicyanide] | 88% | 0% | 40 nM
COc1cc(NN=C(C#N)C#N)ccc1NC(=O)c1cnc(C)cn1 [Compound 10, (3-methoxy-4-(5-methylpyrazine-2-carboxamido)phenyl)carbonohydrazonoyl dicyanide] | 21.7% | 0% | –
Cc1cnc(C(=O)Nc2ccc(NN=C(C#N)C#N)cc2Cl)cn1 [Compound 11, (3-chloro-4-(5-methylpyrazine-2-carboxamido)phenyl)carbonohydrazonoyl dicyanide] | 82.5% | 0% | 110 nM
Cc1cnc(C(=O)Nc2ncc(NN=C(C#N)C#N)cc2C)cn1 [Compound 12, (5-methyl-6-(5-methylpyrazine-2-carboxamido)pyridin-3-yl)carbonohydrazonoyl dicyanide] | 122.1% | 17.9% | 640 nM
Cc1cnc(C(=O)Nc2cc(C)c(NN=C(C#N)C#N)cn2)cn1 [Compound 13, (4-methyl-6-(5-methylpyrazine-2-carboxamido)pyridin-3-yl)carbonohydrazonoyl dicyanide] | 110% | 30% | 550 nM
Cc1cnc(C(=O)Nc2ccc(NN=C(C#N)C#N)nc2)cn1 [Compound 14, (5-(5-methylpyrazine-2-carboxamido)pyridin-2-yl)carbonohydrazonoyl dicyanide] | 102% | 147% | –
N#CC(C#N)=NNc1ccc(NC(=O)c2ccccc2)nc1 [Compound 15, (6-benzamidopyridin-3-yl)carbonohydrazonoyl dicyanide] | 79.9% | 0% | 90 nM
N#CC(C#N)=NNc1ccc(NC(=O)c2ccccc2F)nc1 [Compound 17, (6-(2-fluorobenzamido)pyridin-3-yl)carbonohydrazonoyl dicyanide] | 102.7% | 0% | 310 nM
N#CC(C#N)=NNc1ccc(NC(=O)c2cccc(F)c2)nc1 [Compound 18, (6-(3-fluorobenzamido)pyridin-3-yl)carbonohydrazonoyl dicyanide] | 113% | 0% | 660 nM
Cc1cc(C(=O)Nc2ccc(NN=C(C#N)C#N)cn2)ccc1F [Compound 21, (6-(4-fluoro-3-methylbenzamido)pyridin-3-yl)carbonohydrazonoyl dicyanide] | 104.3% | 0% | 750 nM
Cc1ccc(C(=O)Nc2ccc(NN=C(C#N)C#N)cn2)cc1F [Compound 22, (6-(3-fluoro-4-methylbenzamido)pyridin-3-yl)carbonohydrazonoyl dicyanide] | 105.8% | 0% | 320 nM
Cc1cccc(C(=O)Nc2ccc(NN=C(C#N)C#N)cn2)c1 [Compound 24, (6-(3-methylbenzamido)pyridin-3-yl)carbonohydrazonoyl dicyanide] | 103.9% | 0% | < 300 nM
Cc1ccccc1C(=O)Nc1ccc(NN=C(C#N)C#N)cn1 [Compound 25, (6-(2-methylbenzamido)pyridin-3-yl)carbonohydrazonoyl dicyanide] | 122.4% | 0% | 390 nM
N#CC(C#N)=NNc1ccc(NC(=O)c2ccccc2C(F)(F)F)nc1 [Compound 28, (6-(2-(trifluoromethyl)benzamido)pyridin-3-yl)carbonohydrazonoyl dicyanide] | 125.8% | 0% | 540 nM
N#CC(C#N)=NNc1ccc(NC(=O)c2ncccn2)nc1 [Compound 29, (6-(pyrimidine-2-carboxamido)pyridin-3-yl)carbonohydrazonoyl dicyanide] | 139.9% | 0% | 1040 nM
N#CC(C#N)=NNc1ccc(NC(=O)c2cnc3ccccc3n2)nc1 [Compound 32, (6-(quinoxaline-2-carboxamido)pyridin-3-yl)carbonohydrazonoyl dicyanide] | 145.3% | 0% | 310 nM
Cc1cnc(C(=O)Nc2nc3ncc(NN=C(C#N)C#N)cc3s2)cn1 [Compound 33, (2-(5-methylpyrazine-2-carboxamido)thiazolo[4,5-b]pyridin-6-yl)carbonohydrazonoyl dicyanide] | 125% | 63.9% | –
Cc1ccc(NC(=O)c2ccc(NN=C(C#N)C#N)cn2)cc1 [Compound 34, (6-(p-tolylcarbamoyl)pyridin-3-yl)carbonohydrazonoyl dicyanide] | 88.1% | 76% | 9000 nM
COc1ccc(NC(=O)c2ccc(NN=C(C#N)C#N)cn2)cc1 [Compound 35, (6-(4-methoxyphenylcarbamoyl)pyridin-3-yl)carbonohydrazonoyl dicyanide] | 97.9% | 34.2% | –
Cc1cnc(NC(=O)c2ccc(NN=C(C#N)C#N)cn2)cn1 [Compound 36, (6-(5-methylpyrazin-2-ylcarbamoyl)pyridin-3-yl)carbonohydrazonoyl dicyanide] | 86.9% | 35.9% | –
N#CC(C#N)=NNc1ccc(C(=O)Nc2ccc(Cl)cc2)nc1 [Compound 37, (6-(4-chlorophenylcarbamoyl)pyridin-3-yl)carbonohydrazonoyl dicyanide] | 117.8% | 62.7% | –
Cc1cncc(NC(=O)c2ccc(NN=C(C#N)C#N)cn2)c1 [Compound 39, (6-(5-methylpyridin-3-ylcarbamoyl)pyridin-3-yl)carbonohydrazonoyl dicyanide] | 131.1% | 0% | 630 nM
N#CC(C#N)=NNc1ccc(C(=O)Nc2cccnc2)nc1 [Compound 40, (6-(pyridin-3-ylcarbamoyl)pyridin-3-yl)carbonohydrazonoyl dicyanide] | 130.7% | 7.9% | –
Cc1cncc(NC(=O)c2ccc(NN=C(C#N)C#N)cn2)n1 [Compound 41, (6-(6-methylpyrazin-2-ylcarbamoyl)pyridin-3-yl)carbonohydrazonoyl dicyanide] | 115.2% | 0% | –
N#CC(C#N)=NNc1ccc(C(=O)Nc2cncnc2)nc1 [Compound 42, (6-(pyrimidin-5-ylcarbamoyl)pyridin-3-yl)carbonohydrazonoyl dicyanide] | 123.1% | 0% | –
N#CC(C#N)=NNc1ccc(C(=O)Nc2ncccn2)nc1 [Compound 43, (6-(pyrimidin-2-ylcarbamoyl)pyridin-3-yl)carbonohydrazonoyl dicyanide] | 168.6% | 3% | –
COc1ccc(NC(=O)c2ccc(NN=C(C#N)C#N)cc2)cc1 [Compound 44, (4-(4-methoxyphenylcarbamoyl)phenyl)carbonohydrazonoyl dicyanide] | 70.4% | 0% | –
